Test results reported in article PMC5785446 (Alcoholism, clinical and experimental research, 2018).

How the values were obtained:
C57BL/6J mice = details: mouse, in vivo
wild-type mice = details: mouse, in vivo
human MOP receptor = human MOP receptor (Homo sapiens, UniProt P35372); assay type: biochemical
Sequence of human MOP receptor (P35372 whole entry): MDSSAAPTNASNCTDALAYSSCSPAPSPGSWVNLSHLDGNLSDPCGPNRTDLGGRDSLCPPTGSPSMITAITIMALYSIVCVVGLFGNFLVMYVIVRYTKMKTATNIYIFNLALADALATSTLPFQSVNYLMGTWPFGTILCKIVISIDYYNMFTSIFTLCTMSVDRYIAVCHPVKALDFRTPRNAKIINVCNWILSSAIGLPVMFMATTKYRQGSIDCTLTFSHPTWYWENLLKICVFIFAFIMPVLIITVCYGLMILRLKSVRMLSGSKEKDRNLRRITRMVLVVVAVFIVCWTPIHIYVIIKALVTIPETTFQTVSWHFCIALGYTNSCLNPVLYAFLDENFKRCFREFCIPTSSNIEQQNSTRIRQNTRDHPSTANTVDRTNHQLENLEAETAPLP

Row | SMILES | effect on ethanol-induced CPP (C57BL/6J mice) | motor sedative effect on conditioning days (wild-type mice) | [35S]GTPγS MOP % Stim (human MOP receptor)
1 | CCCC(C)C1(CC)C(=O)NC(=O)NC1=O (stereo not drawn) [pentobarbital] | did not alter the rewarding action of ethanol | robust motor sedative effect | 
2 | C[C@@H](NC(=O)[C@@H](N)Cc1ccc(O)cc1)C(=O)NCC(=O)N(C)[C@@H](Cc1ccccc1)C(=O)NCCO [DAMGO] |  |  | 100%
